The target in the experiment is T1, Human glucocorticoid receptors (Homo sapiens, UniProt P04150).
T1 construct: made in house; host or cells: Sf9 insect cells, recombinant baculovirus (BAC-TO-BAC)
T1 sequence (P04150 1-777): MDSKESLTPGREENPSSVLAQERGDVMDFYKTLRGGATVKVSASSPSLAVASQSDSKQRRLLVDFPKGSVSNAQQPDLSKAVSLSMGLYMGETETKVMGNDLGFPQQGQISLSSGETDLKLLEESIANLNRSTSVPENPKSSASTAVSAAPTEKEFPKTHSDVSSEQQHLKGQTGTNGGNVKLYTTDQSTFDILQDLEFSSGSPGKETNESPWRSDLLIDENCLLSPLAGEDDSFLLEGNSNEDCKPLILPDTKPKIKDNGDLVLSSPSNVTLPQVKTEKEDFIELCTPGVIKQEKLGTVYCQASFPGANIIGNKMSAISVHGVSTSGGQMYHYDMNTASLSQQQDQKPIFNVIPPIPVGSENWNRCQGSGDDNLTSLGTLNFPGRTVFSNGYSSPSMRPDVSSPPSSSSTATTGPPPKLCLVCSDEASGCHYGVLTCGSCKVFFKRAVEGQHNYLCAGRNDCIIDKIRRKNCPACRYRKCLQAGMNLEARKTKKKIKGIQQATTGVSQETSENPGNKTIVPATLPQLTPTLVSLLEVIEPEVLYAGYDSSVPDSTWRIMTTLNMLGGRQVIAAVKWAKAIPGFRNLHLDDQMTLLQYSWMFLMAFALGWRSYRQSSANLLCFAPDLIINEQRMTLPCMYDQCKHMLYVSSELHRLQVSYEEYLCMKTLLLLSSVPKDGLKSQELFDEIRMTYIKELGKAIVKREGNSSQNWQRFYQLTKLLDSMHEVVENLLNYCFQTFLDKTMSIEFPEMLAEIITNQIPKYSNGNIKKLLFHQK
Put plainly: Radioligand filter binding assay, displacement of 3[H]-dexamethasone from hGR. The settings on record: read-out: GR Binding (% Inhibition at 1.7 μM). The text has this:
Dexamethasone hereafter referred to as dex was purchased from SIGMA. […] Human glucocorticoid receptors were extracted from Sf9 cells infected with a recombinant baculovirus transfer vector containing the cloned hGR genes. Recombinant baculovirus was generated utilizing the BAC-TO-BAC expression system (Life Technologies) in accordance to instruction from the supplier. The hGR coding sequences were cloned into a baculovirus transfer vector by standard techniques. The recombinant baculoviruses expressing hGR were amplified and used to infect Sf9 cells. Infected cells were harvested 48 hrs post infection. […] The concentration of hGR in the extract was measured as specific ^3[H]-dex binding with the G25-assay as described in J. Steroid Biochem. Molec. […] The extract was aliquoted and stored at −70° C.
The filter binding assay: Dilution series of the test compounds and dex as reference were made from 10 mM (1 mM dex) stock solutions in DMSO. 10 μl of the dilutions was added in duplicates to the wells. The cell extracts were diluted 10 fold in EPMo+MTG buffer (1 mM EDTA, HPO4 20 mM (pH8), 6 mM MTG). […] 110 μl of the diluted ^3[H]-dex were added to the wells. The final concentration of hGR in the experiment was estimated to 1 nM. All preparations were made in […] on ice and with +4° C. temperated buffers. The plates were incubated over night at +4° C. (15-20 hours).
The incubation was stopped by filtration through GF/B filter on the Tomtec Cellharvester. The filtration on the Tomtec Cellharvester was programmed as follows: 1) Preparation before filtration with EP buffer (1 mM EDTA 20 mM HPO4 (pH8)) 2×[Wash/Asp 0.6 sec., Asp 0.5 sec.]; 2) Prewet of GF/B filter with EP+PEI buffer (EP buffer, 0.3% Polyethylenimine) [Asp 0.8 sec.]; 3) Filtration/harvesting of the 96-well incubation plate 3×[Wash/Asp 0.6 sec., Asp 0.5 sec.]. The GF/B filter was dried for at least 1 hour at 65° C. A MeltiLex scintillation wax was melted onto the filter with the Microsealer. The filter was placed in a samplebag, which was thereafter trimmed with scissors to fit the filter cassette. The cassette were placed in the Microbeta and measured for 1 min/position, returning ccpm (corrected counts per minute).
b=((bmax−bmin)/(1+(I/IC50)^S))+bminI
The Microbeta-instrument generates the mean cpm (counts per minute) value/minute and corrects for individual variations between the detectors thus generating corrected cpm values.

By inhibition is commonly meant how much of the control response was suppressed. For `CC[C@H](C)[C@H](NC(=O)CCCOc1ccc(Oc2ccc(CN(Cc3ccccc3)c3cccc(NS(C)(=O)=O)c3C)cc2)cc1)C(=O)O` [Example 259, N-[4-(4-{4-[(benzyl{2-methyl-3-[(methylsulfonyl)amino]phenyl}amino)methyl]phenoxy}phenoxy)butanoyl]-L-isoleucine], the inhibition at 1.7 µM was determined as 91.2%. The result for `Cc1c(NS(C)(=O)=O)cccc1N(Cc1ccccc1)Cc1ccc(Oc2ccc(OCCCC(=O)N[C@@H](CCC(N)=O)C(=O)O)cc2)cc1` [Example 260, N˜2˜-[4-(4-{4-[(benzyl{2-methyl-3-[(methylsulfonyl)amino]phenyl}amino)methyl]phenoxy}phenoxy)butanoyl]-L-glutamine] reads 91.3%.

Take `Cc1c(NS(C)(=O)=O)cccc1N(Cc1ccccc1)Cc1ccc(Oc2ccc(OCCCCC(=O)NCC(=O)O)cc2)cc1` [Example 261, N-[5-(4-{4-[(benzyl{2-methyl-3-[(methylsulfonyl)amino]phenyl}amino)methyl]phenoxy}phenoxy)pentanoyl]glycine]: the inhibition at 1.7 µM was determined as 91.5%.

For `Cc1c(NS(C)(=O)=O)cccc1N(Cc1ccccc1)Cc1ccc(Oc2ccc(OCCCCC(=O)NCCC(=O)O)cc2)cc1` [Example 262, N-[5-(4-{4-[(benzyl{2-methyl-3-[(methylsulfonyl)amino]phenyl}amino)methyl]phenoxy}phenoxy)pentanoyl]-beta-alanine], the inhibition at 1.7 µM worked out at 92.2%. The result for `Cc1c(NS(C)(=O)=O)cccc1N(Cc1ccccc1)Cc1ccc(Oc2ccc(OCCCCC(=O)NCCCC(=O)O)cc2)cc1` [Example 263, 4-{[5-(4-{4-[(benzyl{2-methyl-3-[(methylsulfonyl)amino]phenyl}amino)methyl]phenoxy}phenoxy)pentanoyl]amino}butanoic acid] reads 91.7%; that for `Cc1c(NS(C)(=O)=O)cccc1N(Cc1ccccc1)Cc1ccc(Oc2ccc(OCCCCC(=O)N(C)CC(=O)O)cc2)cc1` [Example 264, N-[5-(4-{4-[(benzyl{2-methyl-3-[(methylsulfonyl)amino]phenyl}amino)methyl]phenoxy}phenoxy)pentanoyl]-N-methylglycine], 89.5%; that for `Cc1c(NS(C)(=O)=O)cccc1N(Cc1ccccc1)Cc1ccc(Oc2ccc(OCCCCC(=O)N[C@@H](CCC(=O)O)C(=O)O)cc2)cc1` [Example 265, N-[5-(4-{4-[(benzyl{2-methyl-3-[(methylsulfonyl)amino]phenyl}amino)methyl]phenoxy}phenoxy)pentanoyl]-L-glutamic acid], 90%. As to `Cc1c(NS(C)(=O)=O)cccc1N(Cc1ccccc1)Cc1ccc(Oc2ccc(OCCCCC(=O)N[C@H](C(=O)O)C(C)C)cc2)cc1` [Example 266, N-[5-(4-{4-[(benzyl{2-methyl-3-[(methylsulfonyl)amino]phenyl}amino)methyl]phenoxy}phenoxy)pentanoyl]-L-valine], the inhibition at 1.7 µM stood at 90.7%.

Take `Cc1c(NS(C)(=O)=O)cccc1N(Cc1ccccc1)Cc1ccc(Oc2ccc(OCCCCC(=O)N3CCC[C@H]3C(=O)O)cc2)cc1` [Example 267, 1-[5-(4-{4-[(benzyl{2-methyl-3-[(methylsulfonyl)amino]phenyl}amino)methyl]phenoxy}phenoxy)pentanoyl]-L-proline]: the inhibition at 1.7 µM came out at 92.2%.

As for `Cc1c(NS(C)(=O)=O)cccc1N(Cc1ccccc1)Cc1ccc(Oc2ccc(OCCCCC(=O)NC3CCOC3=O)cc2)cc1` (centres unmarked) [Example 268, 5-(4-{4-[(benzyl{2-methyl-3-[(methylsulfonyl)amino]phenyl}amino)methyl]phenoxy}phenoxy)-N-(2-oxotetrahydrofuran-3-yl)pentanamide], the inhibition at 1.7 µM stood at 90.8%. Regarding `Cc1c(NS(C)(=O)=O)cccc1N(Cc1ccccc1)Cc1ccc(Oc2ccc(OCCCCC(=O)N[C@@H](CO)C(=O)O)cc2)cc1` [Example 269, N-[5-(4-{4-[(benzyl{2-methyl-3-[(methylsulfonyl)amino]phenyl}amino)methyl]phenoxy}phenoxy)pentanoyl]-L-serine], the inhibition at 1.7 µM worked out at 90.7%.

The record behind these values is patent publication US6583180B2, “Glucocorticoid receptor modulators” (Abbott Laboratories, priority 2001, dated 2003).
